Among the test systems are CCRF-CEM leukemia; EKVX NSCLC; HCT-15 colon; OVCAR-3 ovarian; SK-OV-3 ovarian; SN12C renal; SW-620 colon; CAKI-1 renal.
Assay in all cases: DTP human tumour cell line panel, 48 h

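These data come from cells grown in 96-well plates and exposed to compound for 48 hours at five concentrations. Abbreviation: GI50, concentration required for 50% inhibition of growth. TGI: total growth inhibition.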

By GI50 is commonly meant the concentration at which growth is held to half of that of the control. One may read the TGI as the concentration at which net growth stops. Read a high TGI as less potent growth arrest.

`NC(N)=NC(N)=Nc1cc2ccccc2c2ccccc12`: the GI50 in the test with CCRF-CEM leukemia is 8.61 µM; with EKVX NSCLC, 12 µM; in the test on HCT-15 colon it was 14.9 µM; with OVCAR-3 ovarian, 12.3 µM; with SK-OV-3 ovarian it was 11.4 µM; with SN12C renal, 5.3 µM. The GI50 in the test on SW-620 colon was 6.5 µM. The TGI in the test with CCRF-CEM leukemia turned out to be 30.5 µM; in the test on EKVX NSCLC, 29.1 µM; in the test on HCT-15 colon it was 30.5 µM; in the test on OVCAR-3 ovarian it was 26.6 µM; in the test on SK-OV-3 ovarian, 24 µM; in the test on SN12C renal, 19.9 µM. This compound also returned a TGI with SW-620 colon of 21.4 µM.
As to `CCCCNC(=O)NS(=O)(=O)c1ccc(N2N=C(c3ccc(C)cc3C)CC2c2ccc(N(C)C)cc2)cc1` (stereo not given), the GI50 is 3.38 µM in the test on CAKI-1 renal; 3.32 µM in the test on CCRF-CEM leukemia; 3.09 µM in the test with HCT-15 colon; 2.5 µM with OVCAR-3 ovarian; 8.16 µM in the test on SK-OV-3 ovarian; 3.07 µM with SN12C renal. In the test on SW-620 colon, the GI50 is 4.14 µM. In addition, the TGI in the test on CAKI-1 renal was greater than 100 µM; in the test on CCRF-CEM leukemia, 46.7 µM; in the test on HCT-15 colon, greater than 100 µM; in the test on OVCAR-3 ovarian, 5.72 µM; with SK-OV-3 ovarian it was greater than 100 µM; in the test with SN12C renal it was 89.5 µM. In the test with SW-620 colon, this compound showed a TGI greater than 100 µM.
Take `C[C@]12CC[C@@H]3c4ccc(Oc5nc(N6CC6)nc(N6CC6)n5)cc4CC[C@H]3[C@@H]1CCC2=O`: the GI50 is 0.641 µM in the test on CAKI-1 renal; 1.6 µM with CCRF-CEM leukemia; 2.85 µM in the test with HCT-15 colon; 3.86 µM with OVCAR-3 ovarian; 3.31 µM in the test with SK-OV-3 ovarian; 1.74 µM in the test on SN12C renal. The GI50 in the test with SW-620 colon was 2.26 µM. In addition, the TGI was found to be 43.7 µM in the test with CAKI-1 renal; 16.2 µM with CCRF-CEM leukemia; 18.6 µM with HCT-15 colon; 15.3 µM with OVCAR-3 ovarian; 13.9 µM in the test on SK-OV-3 ovarian; 15.8 µM in the test with SN12C renal. In addition, the TGI with SW-620 colon was found to be 18.5 µM.
For `COc1ccc(S(=O)(=O)N(Cc2ccc3c(n2)C=CC(C)(C)O3)C2CCC2)cc1OC`, the GI50 in the test with CAKI-1 renal is less than 0.01 µM; in the test on CCRF-CEM leukemia, less than 0.01 µM; in the test on HCT-15 colon, 0.0154 µM; in the test with OVCAR-3 ovarian it was less than 0.01 µM; in the test with SK-OV-3 ovarian, less than 0.01 µM; in the test on SN12C renal, less than 0.01 µM. The GI50 with SW-620 colon was less than 0.01 µM. Further, the TGI in the test on CAKI-1 renal was 0.145 µM; in the test on CCRF-CEM leukemia it was 0.0922 µM; in the test on HCT-15 colon, greater than 33.6 µM; with OVCAR-3 ovarian it was 0.0955 µM; in the test on SK-OV-3 ovarian it was less than 0.01 µM; in the test on SN12C renal, 0.161 µM. In the test on SW-620 colon, the concentration for total growth inhibition (TGI) is greater than 35.1 µM.
For the compound `COc1ccc(-c2nc(-c3nc4ccc(C)cc4[nH]3)c3ccccn23)cc1`, the GI50 in the test with CAKI-1 renal was 2.83 µM; in the test on CCRF-CEM leukemia, 1.97 µM; in the test with HCT-15 colon, 2.83 µM; in the test with OVCAR-3 ovarian, 2.99 µM; with SK-OV-3 ovarian it was 6.95 µM; in the test on SN12C renal, 3.08 µM. Also, the GI50 in the test with SW-620 colon was 3.12 µM. Further, the TGI was greater than 100 µM in the test on CAKI-1 renal; 6.28 µM in the test with CCRF-CEM leukemia; greater than 100 µM with HCT-15 colon; 10.2 µM in the test with OVCAR-3 ovarian; greater than 100 µM in the test on SK-OV-3 ovarian; greater than 100 µM in the test with SN12C renal. For the same compound, the TGI in the test with SW-620 colon is greater than 100 µM.
Turning to `Cn1cc(C2=C(c3cn(CCCN=C(N)N)c4ccccc34)C(=O)NC2=O)c2ccccc21`, the GI50 in the test with CAKI-1 renal was greater than 25 µM; in the test on CCRF-CEM leukemia, greater than 25 µM; in the test with HCT-15 colon, greater than 25 µM; in the test on OVCAR-3 ovarian, greater than 25 µM; with SK-OV-3 ovarian it was greater than 25 µM; in the test on SN12C renal it was greater than 19.8 µM. Also, the GI50 with SW-620 colon was greater than 25 µM. Besides, the TGI in the test on CAKI-1 renal, in the test with CCRF-CEM leukemia, in the test on HCT-15 colon, in the test on OVCAR-3 ovarian, in the test with SK-OV-3 ovarian and in the test with SN12C renal was greater than 25 µM throughout. In the test with SW-620 colon, this compound showed a TGI greater than 25 µM.
As for `COc1ccc(-n2c(SCc3cc(OC)c(OC)c(OC)c3)nc3ccc(C)cc3c2=O)cc1`, the GI50 in the test with CAKI-1 renal is 4.53 µM; with CCRF-CEM leukemia it was 1.58 µM; in the test on HCT-15 colon it was 5.24 µM; in the test with OVCAR-3 ovarian, 4.87 µM; with SK-OV-3 ovarian, 9.74 µM; in the test with SN12C renal it was 52.7 µM. For the same compound, in the test with SW-620 colon, the GI50 is 4.35 µM. For the same compound, the TGI in the test with CAKI-1 renal, in the test on CCRF-CEM leukemia, with HCT-15 colon, in the test on OVCAR-3 ovarian, in the test on SK-OV-3 ovarian and in the test on SN12C renal was greater than 100 µM each time. In addition, the TGI in the test on SW-620 colon is greater than 100 µM.
For `Cn1cc(C2=C(c3cn(C)c4c(N)cccc34)C(=O)NC2=O)c2ccccc21`, the GI50 in the test on CAKI-1 renal is 0.857 µM; in the test on CCRF-CEM leukemia it was 0.797 µM; in the test on HCT-15 colon it was 0.743 µM; in the test with OVCAR-3 ovarian, 0.507 µM; with SK-OV-3 ovarian it was 1.22 µM; in the test with SN12C renal it was 2.12 µM. Moreover, the GI50 in the test with SW-620 colon was 0.905 µM. Moreover, the TGI in the test with CAKI-1 renal was greater than 25 µM; in the test with CCRF-CEM leukemia, greater than 25 µM; in the test with HCT-15 colon it was greater than 25 µM; in the test with OVCAR-3 ovarian it was 1.45 µM; in the test on SK-OV-3 ovarian it was greater than 20.1 µM; with SN12C renal it was greater than 25 µM. Further, in the test with SW-620 colon, the TGI is greater than 25 µM.
As for `COc1cccc(NCc2nnc(Nc3ccc(Cl)cc3)c3ccccc23)c1`, the GI50 was 2.73 µM in the test with CCRF-CEM leukemia; 0.588 µM with EKVX NSCLC; 1.78 µM with HCT-15 colon; 1.65 µM in the test with OVCAR-3 ovarian; 1.13 µM in the test with SK-OV-3 ovarian; 2.52 µM in the test on SN12C renal. The GI50 in the test with SW-620 colon is 2.98 µM. Further, the TGI in the test with CCRF-CEM leukemia was found to be 13.4 µM; in the test on EKVX NSCLC it was 6.4 µM; in the test on HCT-15 colon it was 7.56 µM; in the test with OVCAR-3 ovarian, 10 µM; in the test on SK-OV-3 ovarian it was 8.19 µM; with SN12C renal, 10.7 µM. Moreover, the TGI with SW-620 colon worked out at 8.13 µM.
Consider `COc1cc(-c2c(C#N)c(N)n3c(nc4ccccc43)c2C#N)cc(Br)c1OC`, for which, in the test on HCT-15 colon, the GI50 is greater than 100 µM and the TGI was greater than 100 µM. Moreover, in the test on SK-OV-3 ovarian, the GI50 was greater than 100 µM and the TGI is greater than 100 µM.
For `C[C@]12CC[C@@H]3c4ccc(O)cc4CC[C@H]3[C@@H]1CC[C@@H]2NS(=O)(=O)c1ccc(C(F)(F)F)cc1`, the GI50 is 2.78 µM with CAKI-1 renal; 2.77 µM with CCRF-CEM leukemia; 1.68 µM in the test on HCT-15 colon; 2.53 µM in the test with SK-OV-3 ovarian; 1.75 µM in the test with SN12C renal; 3.23 µM in the test with SW-620 colon. The TGI with CAKI-1 renal was found to be 8.06 µM; in the test with CCRF-CEM leukemia, 9.8 µM; in the test on HCT-15 colon, 3.62 µM; in the test on SK-OV-3 ovarian, 6.21 µM; in the test with SN12C renal, 3.36 µM; with SW-620 colon, 10.8 µM.
As to `O=[N+]([O-])c1ccc2nnnn2c1`, the TGI was 63.1 µM with CAKI-1 renal; greater than 100 µM in the test with EKVX NSCLC; 44.3 µM with HCT-15 colon; 35.2 µM in the test with OVCAR-3 ovarian; greater than 100 µM in the test with SK-OV-3 ovarian; greater than 100 µM with SN12C renal. This compound also had a TGI in the test with SW-620 colon greater than 100 µM.
Turning to `Cc1cc(C)cc(Nc2cc(C)nc3nc(C(F)(F)F)nn23)c1`, the GI50 with CAKI-1 renal was greater than 100 µM; in the test on HCT-15 colon it was greater than 100 µM; in the test on OVCAR-3 ovarian, greater than 100 µM; in the test with SK-OV-3 ovarian, 81.5 µM; in the test with SN12C renal it was greater than 100 µM; in the test on SW-620 colon, greater than 100 µM. Further, the TGI in the test with CAKI-1 renal, in the test with HCT-15 colon, in the test with OVCAR-3 ovarian, in the test on SK-OV-3 ovarian, in the test on SN12C renal and in the test on SW-620 colon was greater than 100 µM in each case.
For `CC[C@H](C)[C@H](NC(=O)[C@H]1CCCCN1C)C(=O)N(C)[C@H](CCc1nc(C(=O)N[C@@H](Cc2ccccc2)C[C@H](C)C(=O)OC)cs1)C(C)C`, the GI50 in the test on CCRF-CEM leukemia was 0.265 µM; in the test on EKVX NSCLC, 1.11 µM; with HCT-15 colon, 0.712 µM; in the test on OVCAR-3 ovarian, 0.0867 µM; in the test with SK-OV-3 ovarian it was 0.797 µM; with SN12C renal it was 0.773 µM. Further, the GI50 in the test with SW-620 colon is 0.213 µM. Moreover, the total growth inhibition concentration (TGI) in the test with CCRF-CEM leukemia, in the test with EKVX NSCLC, in the test on HCT-15 colon, with SK-OV-3 ovarian, in the test with SN12C renal and in the test with SW-620 colon was greater than 25 µM in each case.
On to `CC(C)CC(N)C(=O)O` (stereo not given), for which the TGI in the test with CAKI-1 renal, in the test with CCRF-CEM leukemia, in the test with HCT-15 colon, with OVCAR-3 ovarian, with SK-OV-3 ovarian and with SN12C renal was greater than 100 µM in each case. Moreover, the TGI in the test with SW-620 colon was greater than 100 µM.
In the case of `N#C/C(C(=S)Nc1ccccc1)=C1/NN=C2c3ccccc3C(=O)NN21`, the GI50 in the test with CAKI-1 renal was 34.7 µM; in the test on EKVX NSCLC it was 35.3 µM; in the test with HCT-15 colon, 27.6 µM; in the test on OVCAR-3 ovarian, 21.2 µM; in the test with SK-OV-3 ovarian it was 19.6 µM; in the test with SN12C renal it was 40.7 µM. Also, the GI50 in the test on SW-620 colon was 28.7 µM. For the same compound, the TGI is greater than 100 µM with CAKI-1 renal; greater than 100 µM with EKVX NSCLC; greater than 100 µM in the test on HCT-15 colon; 52.7 µM with OVCAR-3 ovarian; 59.8 µM in the test with SK-OV-3 ovarian; greater than 100 µM with SN12C renal. This compound also displayed a TGI with SW-620 colon greater than 100 µM.

Values taken from PubChem BioAssay (NCI).
